In patent US6737383B1, “Herbicidal oxadiazolidines” (priority 1999, dated 2004):

What was measured:
[1] = system: smallflower flatsedge; test: Test B flood test smallflower flatsedge; format: in vivo, Cyperus difformis
How it was run: (§1)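 Each value is a visual injury score relative to controls, with 10 meaning complete control and 0 no effect. Evaluation took place twelve to sixteen days after the 2-leaf-stage plants were treated and kept in the greenhouse.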

[2] = system: rice; test: Test B flood test rice; format: in vivo, Oryza sativa
How it was run: as §1

[3] = system: morningglory; test: Test B pre/postemergence morningglory; format: in vivo, Ipomoea hederacea
How it was run: (§2)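 Test chemicals in a non-phytotoxic solvent mixture with surfactant were sprayed preemergence onto planted seeds and postemergence onto plants 2 to 18 cm tall (1- to 4-leaf stage). After twelve to sixteen days in a greenhouse, injury was visually rated against untreated controls from 0 (no effect) to 10 (complete control).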

[4] = system: duck salad; test: Test B flood test duck salad; format: in vivo, Heteranthera limosa
How it was run: as §1

[5] = system: blackgrass; test: Test B pre/postemergence blackgrass; format: in vivo, Alopecurus myosuroides
How it was run: as §2

[6] = system: sugar beet; test: Test B pre/postemergence sugar beet; format: in vivo, Beta vulgaris
How it was run: as §2

[7] = system: pigweed; test: Test B pre/postemergence pigweed; format: in vivo, Amaranthus retroflexus
How it was run: as §2

[8] = system: bedstraw; test: Test B pre/postemergence bedstraw; format: in vivo, Galium aparine
How it was run: as §2

[9] = system: soybean; test: Test B pre/postemergence soybean; format: in vivo, Glycine max
How it was run: as §2

[10] = system: crabgrass; test: Test B pre/postemergence crabgrass; format: in vivo, Digitaria sanguinalis
How it was run: as §2

[11] = system: cocklebur; test: Test B pre/postemergence cocklebur; format: in vivo, Xanthium strumarium
How it was run: as §2

[12] = system: surinam grass; test: Test B pre/postemergence surinam grass; format: in vivo, Brachiaria decumbens
How it was run: as §2

[13] = system: corn; test: Test B pre/postemergence corn; format: in vivo, Zea mays
How it was run: as §2

[14] = system: giant foxtail; test: Test B pre/postemergence giant foxtail; format: in vivo, Setaria faberii
How it was run: as §2

[15] = system: wild oat; test: Test B pre/postemergence wild oat; format: in vivo, Avena fatua
How it was run: as §2

[16] = system: purple nutsedge; test: Test B pre/postemergence purple nutsedge; format: in vivo, Cyperus rotundus
How it was run: as §2

[17] = Postemergence, Rate 1000 g/ha, scale 0 to 10 (0 no effect, 10 complete control)
[18] = Rate 250 g/ha, Postemergence (flood test), scale 0 to 10, 0 is no effect, 10 is complete control
[19] = Rate 500 g/ha, listed under Postemergence (flood test species), scale 0 to 10
[20] = Rate 2000 g/ha, Postemergence, scale 0 to 10
[21] = Postemergence, Rate 125 g/ha, scale of 0 to 10 where 0 is no effect and 10 is complete control
[22] = Preemergence, Rate 62 g/ha, scale 0 to 10 (0 no effect, 10 complete control)
[23] = Preemergence, Rate 125 g/ha, 0 is no effect, 10 is complete control
[24] = Preemergence, Rate 250 g/ha, scale 0 to 10, 0 is no effect, 10 is complete control
[25] = Preemergence, Rate 500 g/ha, scale 0 to 10 (0 no effect, 10 complete control)
[26] = Rate 62 g/ha, Postemergence, scale of 0 to 10 where 0 is no effect and 10 is complete control
[27] = Rate 250 g/ha, Postemergence, scale 0 to 10, 0 is no effect, 10 is complete control
[28] = Rate 500 g/ha, Postemergence, scale 0 to 10

Cc1nsc(C)c1-n1c(=O)on(C(=O)N(c2ccc(F)cc2)C(C)C)c1=O [Compound 157]
S. Flatsedge plant response rating [1, 17]: 0
Plant response rating, S. Flatsedge [1, 18]: 0
S. Flatsedge plant response rating [1, 19]: 0
S. Flatsedge plant response rating [1, 20]: 0
Rice plant response rating [2, 17]: 0
Plant response rating, Rice [2, 18]: 0
Rice plant response rating [2, 19]: 0
Rice plant response rating [2, 20]: 0
Morningglory plant response rating [3, 21]: 1
Morningglory plant response rating [3, 22]: 0
Morningglory plant response rating (0 to 10 scale) [3, 23]: 0
Morningglory plant response rating [3, 24]: 0
Morningglory plant response rating [3, 25]: 3
Morningglory plant response rating [3, 26]: 0
Plant response rating, Morningglory [3, 27]: 1
Morningglory plant response rating [3, 28]: 1
Ducksalad plant response rating [4, 17]: 0
Plant response rating, Ducksalad [4, 18]: 0
Ducksalad plant response rating [4, 19]: 0
Ducksalad plant response rating [4, 20]: 0
Blackgrass plant response rating [5, 21]: 0
Blackgrass plant response rating [5, 22]: 0
Blackgrass plant response rating (0 to 10 scale) [5, 23]: 0
Blackgrass plant response rating [5, 24]: 5
Blackgrass plant response rating [5, 25]: 5
Blackgrass plant response rating [5, 26]: 0
Plant response rating, Blackgrass [5, 27]: 0
Blackgrass plant response rating [5, 28]: 2
Sugarbeets plant response rating [6, 21]: 0
Sugarbeets plant response rating [6, 22]: 0
Sugarbeets plant response rating (0 to 10 scale) [6, 23]: 0
Sugarbeets plant response rating [6, 24]: 0
Sugarbeets plant response rating [6, 25]: 0
Sugarbeets plant response rating [6, 26]: 0
Plant response rating, Sugarbeets [6, 27]: 0
Sugarbeets plant response rating [6, 28]: 0
Redroot pigweed plant response rating [7, 21]: 0
Redroot pigweed plant response rating [7, 22]: 0
Redroot pigweed plant response rating (0 to 10 scale) [7, 23]: 0
Redroot pigweed plant response rating [7, 24]: 0
Redroot pigweed plant response rating [7, 25]: 0
Redroot pigweed plant response rating [7, 26]: 0
Plant response rating, Redroot pigweed [7, 27]: 0
Redroot pigweed plant response rating [7, 28]: 0
Bedstraw plant response rating [8, 21]: 0
Bedstraw plant response rating [8, 22]: 0
Bedstraw plant response rating (0 to 10 scale) [8, 23]: 0
Bedstraw plant response rating [8, 24]: 0
Bedstraw plant response rating [8, 25]: 0
Bedstraw plant response rating [8, 26]: 0
Plant response rating, Bedstraw [8, 27]: 0
Soybean plant response rating [9, 21]: 1
Soybean plant response rating [9, 22]: 0
Soybean plant response rating (0 to 10 scale) [9, 23]: 0
Soybean plant response rating [9, 24]: 0
Soybean plant response rating [9, 25]: 0
Soybean plant response rating [9, 26]: 0
Plant response rating, Soybean [9, 27]: 1
Soybean plant response rating [9, 28]: 2
Crabgrass plant response rating [10, 21]: 0
Crabgrass plant response rating [10, 22]: 0
Crabgrass plant response rating (0 to 10 scale) [10, 23]: 2
Crabgrass plant response rating [10, 24]: 4
Crabgrass plant response rating [10, 25]: 6
Crabgrass plant response rating [10, 26]: 0
Plant response rating, Crabgrass [10, 27]: 2
Crabgrass plant response rating [10, 28]: 7
Cocklebur plant response rating [11, 21]: 0
Cocklebur plant response rating [11, 22]: 0
Cocklebur plant response rating (0 to 10 scale) [11, 23]: 0
Cocklebur plant response rating [11, 24]: 0
Cocklebur plant response rating [11, 25]: 0
Cocklebur plant response rating [11, 26]: 0
Plant response rating, Cocklebur [11, 27]: 0
Cocklebur plant response rating [11, 28]: 0
B. signalgrass plant response rating [12, 21]: 0
B. signalgrass plant response rating [12, 22]: 0
B. signalgrass plant response rating (0 to 10 scale) [12, 23]: 0
B. signalgrass plant response rating [12, 24]: 0
B. signalgrass plant response rating [12, 25]: 0
B. signalgrass plant response rating [12, 26]: 0
Plant response rating, B. signalgrass [12, 27]: 0
B. signalgrass plant response rating ([12]; Rate 500 g/ha, Postemergence, scale 0 to 10, 0 no effect, 10 complete control): 0
Corn plant response rating [13, 21]: 0
Corn plant response rating [13, 22]: 0
Corn plant response rating (0 to 10 scale) [13, 23]: 0
Corn plant response rating [13, 24]: 0
Corn plant response rating [13, 25]: 0
Corn plant response rating [13, 26]: 0
Plant response rating, Corn [13, 27]: 0
Corn plant response rating [13, 28]: 0
Giant foxtail plant response rating [14, 21]: 1
Giant foxtail plant response rating [14, 22]: 3
Giant foxtail plant response rating (0 to 10 scale) [14, 23]: 6
Giant foxtail plant response rating [14, 24]: 8
Giant foxtail plant response rating [14, 25]: 10
Giant foxtail plant response rating [14, 26]: 0
Plant response rating, Giant foxtail [14, 27]: 4
Giant foxtail plant response rating [14, 28]: 4
Wild oats plant response rating [15, 22]: 0
Wild oats plant response rating (0 to 10 scale) [15, 23]: 0
Wild oats plant response rating [15, 24]: 0
Wild oats plant response rating [15, 25]: 0
Plant response rating, Wild oats [15, 27]: 0
Wild oats plant response rating [15, 28]: 0
Nutsedge plant response rating [16, 21]: 0
Nutsedge plant response rating [16, 22]: 0
Nutsedge plant response rating (0 to 10 scale) [16, 23]: 0
Nutsedge plant response rating [16, 24]: 0
Nutsedge plant response rating [16, 25]: 0
Nutsedge plant response rating [16, 26]: 0
Plant response rating, Nutsedge [16, 27]: 0
Nutsedge plant response rating [16, 28]: 0
